# Laboratory results: patent US9758494B2, “N-(oxazol-2-yl)-aryl-carboxylic acid amides and use thereof as herbicides” (BAYER CROPSCIENCE AG, priority 2012, dated 2017)
# Assays:
# Assay type in all cases: in vivo
# [1] = tested on: Brassica napus (Oilseed Rape); test: Pre-emergence, damage of crop plants
# Source text: (§1) Seeds of monocotyledonous and dicotyledonous weed plants and crop plants are laid out in wood-fiber pots in sandy loam and covered with soil. The compounds according to the invention, formulated in the form of wettable powders (WP) or as emulsion concentrates (EC), are then applied to the surface of the soil cover in the form of an aqueous suspension or emulsion at a water application rate equating to 600 to 800 l/ha, with addition of 0.2% wetting agent. After the treatment, the pots are placed in a greenhouse and kept under good growth conditions for the test plants. The damage to the test plants is assessed visually after a test period of 3 weeks by comparison with untreated controls (herbicidal activity in percent (%): 100% activity=the plants have died, 0% activity=like control plants). Here, for example, compounds No. 1-163, 1-171, 1-172, 1-283, 1-284, 1-294, 1-295, 1-334, 10-001 and 11-343, at an application rate of 320 g/ha, have an activity of at least 80% against Veronica persica.
# (§2) In the tables below, the properties of the compounds according to the invention are compared to those of the structurally most similar compounds known from WO 2012/028579 A1. These tests were carried out by the pre- and post-emergence method under the conditions mentioned under item 1 and item 2. Here, the herbicidal activity against various harmful plants and the damage of some important crop plants were compared at different dosages.
# Oryza sativa (Rice) [2] = test: Pre-emergence, damage of crop plants
# Source text: as §1, §2
# [3] = tested on: Triticum aestivum (Wheat); test: Pre-emergence, damage of crop plants
# Source text: as §1, §2
# [4] = tested on: Brassica napus (Oilseed Rape); test: Post-emergence, damage of crop plants
# Protocol: (§3) Seeds of monocotyledonous and dicotyledonous weed plants and crop plants are laid out in wood fiber pots in sandy loam, covered with soil and cultivated in a greenhouse under good growth conditions. 2 to 3 weeks after sowing, the test plants are treated at the one-leaf stage. The compounds according to the invention, formulated in the form of wettable powders (WP) or as emulsion concentrates (EC), are then sprayed onto the green parts of the plants in the form of an aqueous suspension or emulsion at a water application rate equating to 600 to 800 l/ha, with addition of 0.2% wetting agent. After the test plants have been left to stand in the greenhouse under optimal growth conditions for about 3 weeks, the action of the preparations is assessed visually in comparison to untreated controls (herbicidal action in percent (%): 100% activity=the plants have died, 0% activity=like control plants). Here, for example, compounds No. 1-163, 1-171, 1-172, 1-173, 1-254, 1-283, 1-284, 1-293, 1-294 and 1-334, at an application rate of 80 g/ha, have an activity of at least 80% against Abutilon theophrasti and Amaranthus retroflexus.
# as §2
# Oryza sativa (Rice) [5] = test: Post-emergence, damage of crop plants
# Protocol: as §3, §2
# [6] = tested on: Triticum aestivum (Wheat); test: Post-emergence, damage of crop plants
# Protocol: as §3, §2
# Avena fatua [7] = test: Pre-emergence herbicidal action
# Source text: as §1, §2
# Zea mays (Corn) [8] = test: Pre-emergence, damage of crop plants; details: Dosage 320/ha (Table G)
# Source text: as §1, §2
# Zea mays (Corn) [9] = test: Post-emergence, damage of crop plants; details: Dosage 20/ha (Table S)
# Protocol: as §3, §2
# Pharbitis purpureum = test: Post-emergence herbicidal action; details: Dosage 20/ha (Table S)
# Protocol: as §3, §2
# Echinochloa crus galli = test: Pre-emergence herbicidal action; details: for herbicidal activity against harmful plants ECHCG: Dosage 320/ha (Table C)
# Source text: as §1, §2
# Matricaria inodora = test: Pre-emergence herbicidal action
# Source text: as §1, §2
# Stellaria media = test: Post-emergence herbicidal action; details: Dosage 5/ha (Table T)
# Protocol: as §3, §2
# Veronica persica = test: Post-emergence herbicidal action; details: Dosage 5/ha (Table T)
# Protocol: as §3, §2
# Abutilon theophrasti = test: Pre-emergence herbicidal action; details: Dosage 320/ha (Table C)
# Source text: as §1, §2
# Amaranthus retroflexus = test: Pre-emergence herbicidal action; details: Dosage 320/ha (Table C)
# Source text: as §1, §2
# Alopecurus myosuroides [10] = test: Pre-emergence herbicidal action; details: Dosage 320/ha (Table D)
# Source text: as §1, §2
# Lolium multiflorum [11] = test: Pre-emergence herbicidal action; details: Dosage 320/ha (Table E)
# Source text: as §1, §2
# Polygonum convolvulus = test: Pre-emergence herbicidal action; details: Dosage 320/ha (Table E)
# Source text: as §1, §2
# Alopecurus myosuroides [12] = test: Post-emergence herbicidal action; details: Dosage 80/ha (Table P)
# Protocol: as §3, §2
# Avena fatua [13] = test: Post-emergence herbicidal action; details: Dosage 80/ha (Table P)
# Protocol: as §3, §2
# Lolium multiflorum [14] = test: Post-emergence herbicidal action; details: Dosage 80/ha (Table P)
# Protocol: as §3, §2
# Setaria viridis = test: Post-emergence herbicidal action; details: Dosage 80/ha (Table P)
# Protocol: as §3, §2
compound,measurement,setting,value
CSc1c(C(F)(F)F)ccc(C(=O)Nc2ncco2)c1C [1-171],damage of crop plants BRSNW,[1]; Dosage 80/ha (Table A),30%
same,damage of crop plants BRSNW,[1]; Dosage 80/ha (Table B),30%
same,damage of crop plants ORYZA,Oryza sativa (Rice) [2]; Dosage 80/ha (Table A),0%
same,damage of crop plants ORYZA,Oryza sativa (Rice) [2]; Dosage 80/ha (Table B),0%
same,damage of crop plants TRZAS,[3]; Dosage 80/ha (Table A),0%
same,damage of crop plants TRZAS,[3]; Dosage 80/ha (Table B),0%
same,damage of crop plants BRSNW,[4]; Dosage 80/ha (Table M),0%
same,damage of crop plants BRSNW,[4]; Dosage 80/ha (Table N),0%
same,damage of crop plants ORYZA,Oryza sativa (Rice) [5]; Dosage 80/ha (Table M),0%
same,damage of crop plants ORYZA,Oryza sativa (Rice) [5]; Dosage 80/ha (Table N),0%
same,damage of crop plants TRZAS,[6]; Dosage 80/ha (Table M),0%
same,damage of crop plants TRZAS,[6]; Dosage 80/ha (Table N),0%
"CCS(=O)(=O)c1ccc(C(=O)Nc2ncnn2C)c(Cl)c1C1=NOC(CC#N)C1 (centres unmarked) [WO 2012/028579, No. 1-267]",Herbicidal activity against AVEFA,Avena fatua [7]; 80 g/ha (Table J),0%
same,Herbicidal activity against AVEFA,Avena fatua [7]; 320 g/ha (Table J),0%
same,Damage of BRSNW,[4]; 20 g/ha (Table V),90%
same,Damage of BRSNW,[4]; 80 g/ha (Table V),90%
C[S+]([O-])c1c(C(F)(F)F)ccc(C(=O)Nc2ncco2)c1Cl (centres unmarked) [1-294],damage of crop plants BRSNW,[1]; Dosage 320/ha (Table G),20%
same,damage of crop plants ORYZA,Oryza sativa (Rice) [2]; Dosage 320/ha (Table G),30%
same,damage of crop plants ZEAMX,Zea mays (Corn) [8],0%
same,"damage of crop plants, Crop plants ORYZA",Oryza sativa (Rice) [5]; Dosage 20/ha (Table S),0%
same,"damage of crop plants, Crop plants TRZAS",[6]; Dosage 20/ha (Table S),0%
same,"damage of crop plants, Crop plants ZEAMX",Zea mays (Corn) [9],0%
same,"herbicidal activity, Harmful plant PHBPU",Pharbitis purpureum,70%
"CCS(=O)(=O)c1ccc(C(=O)Nc2nnnn2C)c(Cl)c1C1=NOC(CC#N)C1 (centres unmarked) [WO 2012/028579, No. 4-268]",Herbicidal activity against AVEFA,Avena fatua [7]; 20 g/ha (Table K),0%
same,Herbicidal activity against AVEFA,Avena fatua [7]; 80 g/ha (Table K),0%
same,Damage of BRSNW,[4]; 5 g/ha (Table W),80%
same,Damage of BRSNW,[4]; 20 g/ha (Table W),100%
"CCS(=O)(=O)c1ccc(C(=O)Nc2nnnn2-c2ccccc2)c(Cl)c1C1=NOC(CC#N)C1 (centres unmarked) [WO 2012/028579, No. 6-268]",Herbicidal activity against AVEFA,Avena fatua [7]; 20 g/ha (Table L),0%
same,Herbicidal activity against AVEFA,Avena fatua [7]; 80 g/ha (Table L),0%
same,Damage of BRSNW,[4]; 20 g/ha (Table X),20%
same,Damage of BRSNW,[4]; 80 g/ha (Table X),60%
"Cn1ncnc1NC(=O)c1ccc(C(F)(F)F)nc1Cl [WO 2012/028579, No. 8-9]",herbicidal activity against harmful plants ECGCG,Echinochloa crus galli; Dosage 80/ha (Table H),0%
same,herbicidal activity against harmful plants MATIN,Matricaria inodora; Dosage 80/ha (Table H),60%
same,herbicidal activity against harmful plants STEME,Stellaria media,10%
same,herbicidal activity against harmful plants VERPE,Veronica persica,60%
"Cc1c(C(=O)Nc2nnnn2C)ccc(S(C)(=O)=O)c1S(C)(=O)=O [WO 2012/028579, No. 1-188]",herbicidal activity against harmful plants ABUTH,Abutilon theophrasti,0%
same,herbicidal activity against harmful plants AMARE,Amaranthus retroflexus,40%
same,herbicidal activity against harmful plants ECHCG,Echinochloa crus galli,0%
same,herbicidal activity against harmful plants MATIN,Matricaria inodora; Dosage 320/ha (Table C),40%
same,damage of crop plants BRSNW,[4]; Dosage 20/ha (Table O),100%
same,damage of crop plants ORYZA,Oryza sativa (Rice) [5]; Dosage 20/ha (Table O),20%
same,damage of crop plants TRZAS,[6]; Dosage 20/ha (Table O),40%
CCS(=O)(=O)c1ccc(C(=O)Nc2nc(C)c(C)o2)c(Cl)c1C1=NOC(CC#N)C1 (centres unmarked) [11-343],Herbicidal activity against AVEFA,Avena fatua [7]; 20 g/ha (Table K),80%
same,Herbicidal activity against AVEFA,Avena fatua [7]; 20 g/ha (Table L),80%
same,Herbicidal activity against AVEFA,Avena fatua [7]; 80 g/ha (Table J),80%
same,Herbicidal activity against AVEFA,Avena fatua [7]; 80 g/ha (Table K),80%
same,Herbicidal activity against AVEFA,Avena fatua [7]; 80 g/ha (Table L),80%
same,Herbicidal activity against AVEFA,Avena fatua [7]; 320 g/ha (Table J),100%
same,Damage of BRSNW,[4]; 5 g/ha (Table W),0%
same,Damage of BRSNW,[4]; 20 g/ha (Table V),0%
same,Damage of BRSNW,[4]; 20 g/ha (Table W),0%
same,Damage of BRSNW,[4]; 20 g/ha (Table X),0%
same,Damage of BRSNW,[4]; 80 g/ha (Table V),0%
same,Damage of BRSNW,[4]; 80 g/ha (Table X),0%
Cc1c(C(=O)Nc2ncco2)ccc(S(C)(=O)=O)c1S(C)(=O)=O [1-163],"damage of crop plants, Crop plant BRSNW",[1]; Dosage 320/ha (Table D),10%
same,"damage of crop plants, Crop plant ORYZA",Oryza sativa (Rice) [2]; Dosage 320/ha (Table E),0%
same,"damage of crop plants, Crop plant TRZAS",[3]; Dosage 320/ha (Table E),0%
same,herbicidal activity against harmful plants ABUTH,Abutilon theophrasti,100%
same,"herbicidal activity, Harmful plant ALOMY",Alopecurus myosuroides [10],30%
same,herbicidal activity against harmful plants AMARE,Amaranthus retroflexus,90%
same,herbicidal activity against harmful plants ECHCG,Echinochloa crus galli,70%
same,"herbicidal activity, Harmful plant LOLMU",Lolium multiflorum [11],100%
same,herbicidal activity against harmful plants MATIN,Matricaria inodora; Dosage 320/ha (Table C),100%
same,"herbicidal activity, Harmful plant POLCO",Polygonum convolvulus,70%
same,damage of crop plants BRSNW,[4]; Dosage 20/ha (Table O),40%
same,damage of crop plants ORYZA,Oryza sativa (Rice) [5]; Dosage 20/ha (Table O),0%
same,damage of crop plants TRZAS,[6]; Dosage 20/ha (Table O),20%
same,herbicidal activity against harmful plants ALOMY,Alopecurus myosuroides [12],60%
same,herbicidal activity against harmful plants AVEFA,Avena fatua [13],40%
same,herbicidal activity against harmful plants LOMU,Lolium multiflorum [14],20%
same,herbicidal activity against harmful plants SETVI,Setaria viridis,100%
